Results taken from patent US20210132065A1, “MAMMALIAN MHC PEPTIDE DISPLAY AS AN EPITOPE SELECTION TOOL FOR VACCINE DESIGN” (ETH Zürich, priority 2018, published 2021).
Read-outs that look alike come from different tables or passages of the source. Where no end group is shown, it is not given here.

Legend:
HLA DRB 1-4 = conditions: published studies; cited from earlier work
HLA-DRB1_4 = assay type: cell-based, human; conditions: for MCR surface expression: peptide covalently linked to beta chain, anti-HLA-DR APC antibody, FACS

MP1 103-117: MP1 peptide comprising amino acids 103-117, known from published studies (Schmid et al Immunity 2007) (LKREITFHGAKEISL; UniProt P03485 103-117, looked up, fragment)
presentation by HLA (HLA DRB 1-4): efficiently presented

MP1 107-121: MP1 peptide comprising amino acids 107-121, known from published studies (Schmid et al Immunity 2007) (ITFHGAKEISLSYSA; UniProt P03485 107-121, looked up, fragment)
presentation by HLA (HLA DRB 1-4): efficiently presented

MP162-72: influenza Matrix Protein 1-derived peptide comprising amino acids 62-72, covalently linked to the HLA beta chain of the MCR (FVFTLTVPSER; also: covalently linked to HLA beta chain of the MCR; UniProt P03485 62-72, looked up, fragment)
MCR surface expression (HLA-DRB1_4): not the other HLAs tested

MP1103-120: influenza Matrix Protein 1 peptide, amino acids 103-120, covalently linked to the HLA beta chain of the MCR (LKREITFHGAKEISLSYS; also: covalently linked to HLA beta chain of the MCR; UniProt P03485 103-120, looked up, fragment)
MCR surface expression (HLA-DRB1_4): efficient surface expression | MCR surface expression (HLA-DRB1_4; listed as MP1103-121): high surface expression

MP1107-117: core epitope of influenza Matrix Protein 1, amino acids 107-117, tested within peptides with different flanking regions (ITFHGAKEISL; UniProt P03485 107-117, looked up, fragment)
presentation (MCR surface expression) (HLA-DRB1_4; FIG. 6, anti-CD3e or anti-HLA-DR PE antibodies, peptides containing the core epitope with different flanking regions): efficiently be presented
